Where a name gives a salt, the structure may show the parent alone.
Legend:
C2C12 cells [1] = test: BMP-Noggin competitive alkaline phosphatase (ALP) assay; assay type: cell-based, Mouse; details: for cell lifting from culture plates: BMP-Noggin competitive ALP assay, low cell number and low yield of protein; for Fold increase in Noggin-Inhibition ALP Assay over BMP alone control: BMP-2 90-100 ng/ml plus noggin 100-120 ng/ml, 72 hours
Procedure: (§1) Their activity was evaluated by determining the potentiation of alkaline phosphatase activity in sub-optimal doses of BMP in the presence or absence of exogenously added noggin.
Mouse C2C12 cells and Dulbecco's modified Eagle's medium (DMEM) were purchased from ATCC (Manassas, Va.). The non-heat inactivated fetal bovine serum (FBS) was purchased from HyClone Laboratories, Inc. (Logan, Utah). The C2C12 cells at passages 5 to 10 were subcultured in T-75 cm^2 flasks in DMEM supplemented with 10% FBS at 37° C. in 5% CO2 with humidification. When the flasks reached 80% confluence, the cells were trypsinized and seeded in triplicate.
The C2C12 cells were plated at 200,000 cells/well in 6-well plates and grown overnight in DMEM containing 10% FBS. On day 2, the culture medium was replaced with DMEM containing 2% FBS and the cells were treated with 90-100 ng/ml of BMP-2 (as noted in each experiment), various concentrations of compound, and 100-120 ng/ml of noggin (as noted in each experiment) for 72 hours. The cells were washed with phosphate-buffered saline (PBS) and lysed by addition of lysis buffer (10 mM Tris-HCl pH 8.0, 1 mM MgCl2 and 1.0% Triton X-100). The cell lysates were centrifuged for 5 minutes at 13,000×g. The supernatant was removed and the aliquots were assayed for ALP activity and protein amount. The ALP activity was measured in triplicate using an ALP assay kit (Sigma-Aldrich, St. Louis, Mo.) in microtiter plates. The protein amount was determined with Bio-Rad protein assay reagent (Bio-Rad, Hercules, Calif.) using bovine serum albumin (BSA) as a standard. The ALP activity (nmoles of p-nitrophenol per ml) was normalized to the protein amount (nmoles of p-nitrophenol per μg).

C2C12 cells [2] = test: Alkaline phosphatase (ALP) assay: potentiation of BMP-2-induced ALP activity; details: C2C12 cells; for Fold increase in BMP-Potentiated ALP activity over BMP control: 50 ng/ml BMP-2, 72 hours; for cell lifting from culture plates: ALP assay
Procedure: as §1
The BMP-potentiating activities of compounds may be evaluated by monitoring several markers of the osteoblastic phenotype corresponding to various time points during phenotype differentiation of C2C12 cells towards terminally differentiated osteoblasts.
The C2C12 cells at passages 5 to 10 were subcultured in T-75 cm^2 flasks in DMEM supplemented with 10% FBS at 37° C. in 5% CO2 with humidification. When the flasks reached 80% confluence, the cells were trypsinized and seeded in triplicate.
The C2C12 cells were plated at 200,000 cells/well in 6-well plates and grown overnight in DMEM containing 10% FBS. On day 2, the culture medium was replaced with DMEM containing 2% FBS and the cells were treated with various concentrations of compound for 24 hours. On day 3, the culture medium was replaced with DMEM containing 2% FBS and the cells were treated with 50 ng/ml of BMP-2 and various concentrations of compound for 72 hours. The cells were washed with phosphate-buffered saline (PBS) and lysed by addition of lysis buffer (10 mM Tris-HCl pH 8.0, 1 mM MgCl2 and 1.0% Triton X-100). The cell lysates were centrifuged for 5 minutes at 13,000×g. The supernatant was removed and the aliquots were assayed for ALP activity and protein amount. The ALP activity was measured in triplicate using an ALP assay kit (Sigma-Aldrich, St. Louis, Mo.) in microtiter plates. The protein amount was determined with Bio-Rad protein assay reagent (Bio-Rad, Hercules, Calif.) using bovine serum albumin (BSA) as a standard. The ALP activity (nmoles of p-nitrophenol per ml) was normalized to the protein amount (nmoles of p-nitrophenol per μg).

Sprague Dawley rats = test: Collagen disc implantation with macrolides in rat ectopic model; assay type: in vivo; parameters: Ave. (Xray score): scale not given here; details: for Ave. (Xray score) / Results (bone, animals with bone of 4): 100 ul, collagen, no BMP-2, 4 weeks; for De novo bone formation: local, collagen disc, chest implant, absence of BMP-2, 4 weeks
From the text: Sprague Dawley rats about 5-6 weeks of age were chest implanted with a collagen disc (diameter of 1.0 cm and height of 2.0 mm; total volume of 150 cubic millimeters) and doses of macrolides in the absence of BMP-2. After 4 weeks the rats were sacrificed and evaluated for bone growth. […] In certain embodiments, the disclosure contemplates local bone formation for fracture repair, segmental bone defects, spine fusion, bone grafting, and regional bone enhancement for osteopenic bones before they fracture (e.g. hip, vertebral body, etc) by deliver locally to induce local bone formation.

Nc1nc2ccc(Cl)cc2c2nc(-c3ccco3)nn12 [CGS 15943, 9-chloro-2-(furan-2-yl)[1,2,4]triazolo[1,5-c]quinazolin-5-amine]
cell lifting from culture plates (C2C12 cells [1]): caused cell lifting from culture plates

COc1cc(C)c(/C=C/C(C)=C/C=C/C(C)=C/C(=O)O)c(C)c1C [Acitretin, acitretin]
Fold increase in BMP-Potentiated ALP activity over BMP control (C2C12 cells [2]): 33
Fold increase in Noggin-Inhibition ALP Assay over BMP alone control (C2C12 cells [1]): 3

O=C(O)CCCc1ccc(N(CCCl)CCCl)cc1 [Chlorambucil, chlorambucil]
Fold increase in BMP-Potentiated ALP activity over BMP control (C2C12 cells [2]): 3
Fold increase in Noggin-Inhibition ALP Assay over BMP alone control (C2C12 cells [1]): 4

CC[C@H](C)C(=O)O[C@H]1C[C@@H](C)C=C2C=C[C@H](C)[C@H](CC[C@@H]3C[C@@H](O)CC(=O)O3)[C@H]21 [Lovastatin, lovastatin]
cell lifting from culture plates (C2C12 cells [1]): caused cell lifting from culture plates

CC(=O)S[C@@H]1CC2=CC(=O)CC[C@]2(C)[C@H]2CC[C@@]3(C)[C@@H](CC[C@@]34CCC(=O)O4)[C@H]12 [Spironolactone, spironolactone]
Fold increase in BMP-Potentiated ALP activity over BMP control (C2C12 cells [2]): 3
Fold increase in Noggin-Inhibition ALP Assay over BMP alone control (C2C12 cells [1]): 4

CCOC(=O)C1=C(C)NC(C)=C(C(=O)OC)C1c1cccc(Cl)c1Cl (stereo not shown) [felodipine]
cell lifting from culture plates (C2C12 cells [1]): caused cell lifting from culture plates

Clc1ccc(CON=C(Cn2ccnc2)c2ccc(Cl)cc2Cl)c(Cl)c1 [oxiconazole nitrate, 1-(2,4-dichlorophenyl)-2-(1H-imidazol-1-yl)ethanone O-(2,4-dichlorobenzyl) oxime]
cell lifting from culture plates (C2C12 cells [1]): caused cell lifting from culture plates

CC(=O)NC[C@H]1CN(c2ccc(N3CCOCC3)c(F)c2)C(=O)O1 [Linezolid, N-[[(5S)-3-[3-fluoro-4-(4-morpholinyl)phenyl]-2-oxo-5-oxazolidinyl]methyl]-acetamide]
Fold increase in BMP-Potentiated ALP activity over BMP control (C2C12 cells [2]): 5
Fold increase in Noggin-Inhibition ALP Assay over BMP alone control (C2C12 cells [1]): 3

COc1cc(CNC(=O)CCCCC=CC(C)C)ccc1O [Capsaicin, N-(4-hydroxy-3-methoxybenzyl)-8-methylnon-6-enamide]
cell lifting from culture plates (C2C12 cells [1]): caused cell lifting from culture plates

COC(=O)Nc1nc2cc(C(=O)c3ccc(F)cc3)ccc2[nH]1 [flubendazole]
cell lifting from culture plates (C2C12 cells [2]): caused cell lifting from culture plates

C=C1/C(=C\C=C2/CCC[C@]3(C)[C@@H]([C@H](C)/C=C/[C@@H](O)C4CC4)CC[C@@H]23)C[C@@H](O)C[C@@H]1O [Calcipotriol, calcipotriol]
cell lifting from culture plates (C2C12 cells [2]): caused cell lifting from culture plates

C=CCc1ccc(O)c(-c2ccc(O)c(CC=C)c2)c1 [Honokiol, 3′,5-di-2-propen-1-yl-[1,1′-biphenyl]-2,4′-diol]
Fold increase in BMP-Potentiated ALP activity over BMP control (C2C12 cells [2]): 5
Fold increase in Noggin-Inhibition ALP Assay over BMP alone control (C2C12 cells [1]): 16

C[C@H]1[C@H](OC(=O)CCC(=O)O)O[C@@H]2O[C@@]3(C)CC[C@H]4[C@H](C)CC[C@@H]1[C@@]24OO3 [Artesunate, 4-oxo-4-(((3R,5aS,6R,8aS,9R,10R,12R,12aR)-3,6,9-trimethyldecahydro-3H-3,12-epoxy[1,2]dioxepino[4,3-i]isochromen-10-yl)oxy)butanoic acid]
cell lifting from culture plates (C2C12 cells [1]): caused cell lifting from culture plates

Clc1ccc(COC(Cn2ccnc2)c2ccc(Cl)cc2Cl)cc1 (stereo not shown) [Econazole nitrate, econazole nitrate]
cell lifting from culture plates (C2C12 cells [2]): caused cell lifting from culture plates

Cc1ccc(Nc2nccc(N(C)c3ccc4c(C)n(C)nc4c3)n2)cc1S(N)(=O)=O [Pazopanib]
Fold-increase of BMP-induced ALP (over BMP alone control) (C2C12 cells [2]): 2.5

CO[C@H]1C[C@@H]2CC[C@@H](C)[C@@](O)(O2)C(=O)C(=O)N2CCCC[C@H]2C(=O)O[C@H]([C@H](C)C[C@@H]2CC[C@@H](OCCO)[C@H](OC)C2)CC(=O)[C@H](C)/C=C(\C)[C@@H](O)[C@@H](OC)C(=O)[C@H](C)C[C@H](C)/C=C/C=C/C=C/1C [Everolimus, everolimus]
Ave. (Xray score) (Sprague Dawley rats; dose 10 mM): 0
Results (bone, animals with bone of 4) (Sprague Dawley rats; dose 10 mM): No bone (0 of 4)
Ave. (Xray score) (Sprague Dawley rats; dose 15 mM): 2.5
Results (bone, animals with bone of 4) (Sprague Dawley rats; dose 15 mM): Bone (3 of 4)
Ave. (Xray score) (Sprague Dawley rats; dose 20 mM): 3.75
Results (bone, animals with bone of 4) (Sprague Dawley rats; dose 20 mM): Bone (4 of 4)
Ave. (Xray score) (Sprague Dawley rats; dose 25 mM): 4.75
Results (bone, animals with bone of 4) (Sprague Dawley rats; dose 25 mM): Bone (4 of 4)
Ave. (Xray score) (Sprague Dawley rats; dose 30 mM): 3.75
Results (bone, animals with bone of 4) (Sprague Dawley rats; dose 30 mM): Bone (3 of 4)
Ave. (Xray score) (Sprague Dawley rats; dose 35 mM): 4.75
Results (bone, animals with bone of 4) (Sprague Dawley rats; dose 35 mM): Bone (4 of 4)
De novo bone formation (Sprague Dawley rats): De novo bone formation is demonstrated locally

COc1cccc2c1C(=O)c1c(O)c3c(c(O)c1C2=O)C[C@@](O)(C(C)=O)C[C@@H]3O[C@H]1C[C@H](N)[C@H](O)[C@H](C)O1 [Daunorubicin hydrochloride]
cell lifting from culture plates (C2C12 cells [2]): caused cell lifting from culture plates
Fold-increase of BMP-induced ALP (over BMP alone control) (C2C12 cells [2]): 7.0

CC[C@@]1(O)C(=O)OCc2c1cc1n(c2=O)Cc2cc3c(N)cccc3nc2-1 [9-aminocamptothecin]
Fold-increase of BMP-induced ALP (over BMP alone control) (C2C12 cells [2]): 10.0

CCN(CC)CCNC(=O)c1c(C)[nH]c(/C=C2\C(=O)Nc3ccc(F)cc32)c1C [Sunitinib]
Fold-increase of BMP-induced ALP (over BMP alone control) (C2C12 cells [2]): 4.0

CC(=O)N1CCN(c2ccc(OC[C@H]3CO[C@](Cn4ccnc4)(c4ccc(Cl)cc4Cl)O3)cc2)CC1 [Ketoconazole, 1-(4-(4-(((2R,4S)-2-((1H-imidazol-1-yl)methyl)-2-(2,4-dichlorophenyl)-1,3-dioxolan-4-yl)methoxy)phenyl)piperazin-1-yl)ethanone]
cell lifting from culture plates (C2C12 cells [1]): caused cell lifting from culture plates

Nc1ccn([C@@H]2O[C@H](CO)[C@@H](O)[C@@H]2O)c(=O)n1 [cytarabine]
cell lifting from culture plates (C2C12 cells [1]): caused cell lifting from culture plates

COC1CC2CCC(C)C(O)(O2)C(=O)C(=O)N2CCCCC2C(=O)OC(C(C)CC2CCC(O)C(OC)C2)CC(=O)C(C)C=C(C)C(O)C(OC)C(=O)C(C)CC(C)C=CC=CC=C1C (stereo not shown) [Sirolimus, 9,10,12,13,14,21,22,23,24,25,26,27,32,33,34,34a-Hexadecahydro-9,27-dihydroxy-3-[2-[4-hydroxy-3-methoxycyclohexyl]-1-methylethyl]-10,21-dimethoxy-6,8,12,14,20,26-hexamethyl-23,27-epoxy-3H-pyrido[2,1-c][1,4]oxaazacyclohentriacontine-1,5,11,28,29(4H,6H,31H)-pentone]
Ave. (Xray score) (Sprague Dawley rats; dose 10 mM): 0.25
Results (bone, animals with bone of 4) (Sprague Dawley rats; dose 10 mM): Bone (1 of 4)
Ave. (Xray score) (Sprague Dawley rats; dose 15 mM): 0.5
Results (bone, animals with bone of 4) (Sprague Dawley rats; dose 15 mM): Bone (1 of 4)
Ave. (Xray score) (Sprague Dawley rats; dose 20 mM): 0.75
Results (bone, animals with bone of 4) (Sprague Dawley rats; dose 20 mM): Bone (1 of 4)
Ave. (Xray score) (Sprague Dawley rats; dose 25 mM): 2.75
Results (bone, animals with bone of 4) (Sprague Dawley rats; dose 25 mM): Bone (3 of 4)
Ave. (Xray score) (Sprague Dawley rats; dose 30 mM): 3.5
Results (bone, animals with bone of 4) (Sprague Dawley rats; dose 30 mM): Bone (3 of 4)
Ave. (Xray score) (Sprague Dawley rats; dose 35 mM): 4.25
Results (bone, animals with bone of 4) (Sprague Dawley rats; dose 35 mM): Bone (4 of 4)
De novo bone formation (Sprague Dawley rats): De novo bone formation is demonstrated locally

CCCSc1ccc2nc(NC(=O)OC)[nH]c2c1 [Albendazole, albendazole]
cell lifting from culture plates (C2C12 cells [2]): caused cell lifting from culture plates

CO[C@@]12[C@H](COC(N)=O)C3=C(C(=O)C(C)=C(N)C3=O)N1C[C@@H]1N[C@@H]12 [Mitomycin C]
Fold-increase of BMP-induced ALP (over BMP alone control) (C2C12 cells [2]): 12.0

CCN(CC)CCOc1ccc(C(=C(Cl)c2ccccc2)c2ccccc2)cc1 [clomid]
cell lifting from culture plates (C2C12 cells [2]): caused cell lifting from culture plates

From patent US11179501B2, “Bone morphogenetic protein pathway activation, compositions for ossification, and methods related thereto” (Emory University, priority 2011, dated 2021)
